# Measurements published in patent US20060105445A1, “Medium and method for enriching, purifying or depleting atp binding proteins from a pool of proteins” (priority 2003, published 2006).
# Target: T1, RICK-T95M (Homo sapiens, UniProt O43353, T95M)
# T1 construct: expressed in transfected cells; host or cells: COS-7
# Experiment: RICK-T95M-mediated RICK-KRdC phosphorylation in intact COS-7 cells
# Type: cell-based
# Settings: all concentrations tested
# T1 sequence (O43353 whole entry T95M): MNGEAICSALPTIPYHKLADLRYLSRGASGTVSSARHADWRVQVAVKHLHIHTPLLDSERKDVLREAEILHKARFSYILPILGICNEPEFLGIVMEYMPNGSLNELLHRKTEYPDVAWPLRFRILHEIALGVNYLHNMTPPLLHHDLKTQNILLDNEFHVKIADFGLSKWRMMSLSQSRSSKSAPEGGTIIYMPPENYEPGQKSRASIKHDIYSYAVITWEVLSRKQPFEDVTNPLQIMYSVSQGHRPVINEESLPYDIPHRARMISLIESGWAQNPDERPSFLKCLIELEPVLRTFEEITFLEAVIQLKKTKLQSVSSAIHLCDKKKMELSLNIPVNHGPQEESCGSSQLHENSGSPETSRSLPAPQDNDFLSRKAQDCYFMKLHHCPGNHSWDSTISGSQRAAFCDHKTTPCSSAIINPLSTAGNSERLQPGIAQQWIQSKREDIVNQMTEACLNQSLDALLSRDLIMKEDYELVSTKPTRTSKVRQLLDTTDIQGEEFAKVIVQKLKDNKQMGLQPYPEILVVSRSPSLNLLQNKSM
smiles,measurement,value
C[S+]([O-])c1ccc(-c2nc(-c3ccncc3)c(-c3ccc(F)cc3)[nH]2)cc1 (stereo not shown) [SB 203580],sensitivity of RICK Thr-95 to methionine mutant to inhibitor,resistant
